{"source": "ChEMBL document CHEMBL4804281", "about": "“STK4 inhibitors for treatment of hematologic malignancies” (2020)", "key": {"[1]": {"molecular_target": "Mitogen-activated protein kinase 10 (Homo sapiens) (UniProt P53779)", "sequence (P53779 whole entry)": "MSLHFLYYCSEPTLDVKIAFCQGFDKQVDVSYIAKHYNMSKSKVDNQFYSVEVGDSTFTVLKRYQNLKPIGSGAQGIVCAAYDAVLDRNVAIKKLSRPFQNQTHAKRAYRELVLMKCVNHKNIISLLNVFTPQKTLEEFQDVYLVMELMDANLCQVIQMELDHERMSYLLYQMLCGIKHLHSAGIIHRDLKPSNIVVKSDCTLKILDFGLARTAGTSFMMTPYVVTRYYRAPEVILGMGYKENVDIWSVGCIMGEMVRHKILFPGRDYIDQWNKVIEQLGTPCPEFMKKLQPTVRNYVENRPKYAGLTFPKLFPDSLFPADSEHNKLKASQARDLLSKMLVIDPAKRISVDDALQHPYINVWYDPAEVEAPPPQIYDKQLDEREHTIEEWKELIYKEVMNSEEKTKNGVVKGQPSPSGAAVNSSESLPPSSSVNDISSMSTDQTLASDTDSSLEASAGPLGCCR", "assay": "Inhibition of JNK3 in human NCI-H929 cells at 10 uM by mass spectroscopic analysis relative to control", "type": "cell-based"}, "[2]": {"molecular_target": "Serine/threonine-protein kinase WNK1 (Homo sapiens) (UniProt Q9H4A3)", "assay": "Inhibition of WNK1 in human NCI-H929 cells at 10 uM by mass spectroscopic analysis relative to control", "type": "cell-based"}, "[3]": {"molecular_target": "Mitogen-activated protein kinase 8 (Homo sapiens) (UniProt P45983)", "assay": "Inhibition of JNK1 in human NCI-H929 cells at 10 uM by mass spectroscopic analysis relative to control", "type": "cell-based"}, "[4]": {"molecular_target": "Serine/threonine-protein kinase WNK2 (Homo sapiens) (UniProt Q9Y3S1)", "sequence (Q9Y3S1 whole entry)": "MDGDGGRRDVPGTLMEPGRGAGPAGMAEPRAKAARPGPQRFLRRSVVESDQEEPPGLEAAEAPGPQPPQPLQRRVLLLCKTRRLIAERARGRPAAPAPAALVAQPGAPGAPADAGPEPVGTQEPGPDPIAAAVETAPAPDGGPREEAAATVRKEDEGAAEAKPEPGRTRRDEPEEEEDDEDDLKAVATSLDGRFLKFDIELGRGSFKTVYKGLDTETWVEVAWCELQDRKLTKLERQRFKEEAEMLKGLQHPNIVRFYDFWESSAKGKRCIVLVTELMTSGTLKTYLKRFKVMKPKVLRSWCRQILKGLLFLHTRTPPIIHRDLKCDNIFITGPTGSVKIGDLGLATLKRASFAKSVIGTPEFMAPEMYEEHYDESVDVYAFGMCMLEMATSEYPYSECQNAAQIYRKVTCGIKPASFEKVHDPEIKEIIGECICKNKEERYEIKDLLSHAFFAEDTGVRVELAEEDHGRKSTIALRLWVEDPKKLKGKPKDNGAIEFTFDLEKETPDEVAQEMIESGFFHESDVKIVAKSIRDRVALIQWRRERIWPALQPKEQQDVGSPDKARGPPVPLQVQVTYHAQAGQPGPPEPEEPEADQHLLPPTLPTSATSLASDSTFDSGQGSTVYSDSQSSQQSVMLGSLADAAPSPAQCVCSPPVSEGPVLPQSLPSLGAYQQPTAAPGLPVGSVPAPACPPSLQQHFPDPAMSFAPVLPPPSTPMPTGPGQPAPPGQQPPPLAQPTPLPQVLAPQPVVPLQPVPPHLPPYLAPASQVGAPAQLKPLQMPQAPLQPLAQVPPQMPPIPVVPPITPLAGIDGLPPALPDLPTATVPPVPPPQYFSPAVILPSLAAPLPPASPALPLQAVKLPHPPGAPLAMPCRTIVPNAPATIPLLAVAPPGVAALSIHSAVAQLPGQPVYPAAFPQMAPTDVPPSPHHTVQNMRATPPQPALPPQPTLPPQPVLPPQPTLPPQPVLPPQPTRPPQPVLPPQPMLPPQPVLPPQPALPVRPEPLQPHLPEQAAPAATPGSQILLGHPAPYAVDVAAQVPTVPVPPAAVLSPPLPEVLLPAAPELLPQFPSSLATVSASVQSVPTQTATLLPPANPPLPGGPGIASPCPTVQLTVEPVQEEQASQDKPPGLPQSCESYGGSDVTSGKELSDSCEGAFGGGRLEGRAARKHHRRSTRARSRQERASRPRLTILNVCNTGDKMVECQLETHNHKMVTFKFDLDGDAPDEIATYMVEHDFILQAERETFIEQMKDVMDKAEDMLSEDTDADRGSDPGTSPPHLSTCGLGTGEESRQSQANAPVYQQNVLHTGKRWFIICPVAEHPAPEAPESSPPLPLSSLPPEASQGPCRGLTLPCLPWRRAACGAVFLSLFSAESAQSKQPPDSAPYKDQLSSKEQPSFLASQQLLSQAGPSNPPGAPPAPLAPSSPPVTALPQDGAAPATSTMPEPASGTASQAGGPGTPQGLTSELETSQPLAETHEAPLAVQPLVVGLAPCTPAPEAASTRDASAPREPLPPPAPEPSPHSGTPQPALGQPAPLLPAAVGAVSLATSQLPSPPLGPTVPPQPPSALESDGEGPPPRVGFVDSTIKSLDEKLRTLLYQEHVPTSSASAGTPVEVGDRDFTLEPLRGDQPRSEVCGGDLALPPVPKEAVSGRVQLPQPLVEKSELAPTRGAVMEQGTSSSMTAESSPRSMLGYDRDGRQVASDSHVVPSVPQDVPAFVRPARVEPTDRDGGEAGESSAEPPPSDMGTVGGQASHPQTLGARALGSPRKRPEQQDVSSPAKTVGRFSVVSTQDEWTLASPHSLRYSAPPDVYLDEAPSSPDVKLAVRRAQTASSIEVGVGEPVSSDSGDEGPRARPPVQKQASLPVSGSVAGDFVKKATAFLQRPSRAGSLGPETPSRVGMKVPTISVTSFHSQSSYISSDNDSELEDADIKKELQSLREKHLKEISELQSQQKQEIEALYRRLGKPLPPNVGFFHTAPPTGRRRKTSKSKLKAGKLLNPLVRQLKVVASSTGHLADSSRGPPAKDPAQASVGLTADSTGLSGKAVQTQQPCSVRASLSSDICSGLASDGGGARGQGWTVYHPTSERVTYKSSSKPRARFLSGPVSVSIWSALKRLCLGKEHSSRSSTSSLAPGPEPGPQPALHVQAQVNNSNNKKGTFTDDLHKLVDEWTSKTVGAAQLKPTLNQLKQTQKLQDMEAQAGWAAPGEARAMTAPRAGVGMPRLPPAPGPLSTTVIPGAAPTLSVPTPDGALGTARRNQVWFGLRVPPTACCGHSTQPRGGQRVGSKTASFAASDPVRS", "assay": "Inhibition of WNK2 in human NCI-H929 cells at 10 uM by mass spectroscopic analysis relative to control", "type": "cell-based"}, "[5]": {"molecular_target": "Calcium/calmodulin-dependent protein kinase type II subunit beta (Homo sapiens) (UniProt Q13554)", "sequence (Q13554 whole entry)": "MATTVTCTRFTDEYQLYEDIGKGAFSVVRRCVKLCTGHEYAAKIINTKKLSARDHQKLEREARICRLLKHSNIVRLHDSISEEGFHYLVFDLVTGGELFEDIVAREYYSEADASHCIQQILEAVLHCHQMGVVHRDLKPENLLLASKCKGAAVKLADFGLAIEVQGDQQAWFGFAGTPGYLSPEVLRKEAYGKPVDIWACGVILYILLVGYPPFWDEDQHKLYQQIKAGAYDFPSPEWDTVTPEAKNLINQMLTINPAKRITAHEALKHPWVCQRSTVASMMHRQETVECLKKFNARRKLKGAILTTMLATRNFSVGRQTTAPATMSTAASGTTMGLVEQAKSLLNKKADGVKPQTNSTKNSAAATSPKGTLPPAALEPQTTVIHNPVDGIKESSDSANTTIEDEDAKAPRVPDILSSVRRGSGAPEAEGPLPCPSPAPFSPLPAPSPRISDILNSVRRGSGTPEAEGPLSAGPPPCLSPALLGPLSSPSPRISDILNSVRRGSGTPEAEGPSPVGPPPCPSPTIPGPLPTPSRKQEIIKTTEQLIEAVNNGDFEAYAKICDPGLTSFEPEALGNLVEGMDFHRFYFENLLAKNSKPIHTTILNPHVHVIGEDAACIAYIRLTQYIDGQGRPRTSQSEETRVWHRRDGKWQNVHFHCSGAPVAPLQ", "assay": "Inhibition of CAMK2B in human NCI-H929 cells at 10 uM by mass spectroscopic analysis relative to control", "type": "cell-based"}, "[6]": {"molecular_target": "PRKCI, protein kinase C iota (Homo sapiens) (UniProt P41743)", "sequence (P41743 whole entry, looked up)": "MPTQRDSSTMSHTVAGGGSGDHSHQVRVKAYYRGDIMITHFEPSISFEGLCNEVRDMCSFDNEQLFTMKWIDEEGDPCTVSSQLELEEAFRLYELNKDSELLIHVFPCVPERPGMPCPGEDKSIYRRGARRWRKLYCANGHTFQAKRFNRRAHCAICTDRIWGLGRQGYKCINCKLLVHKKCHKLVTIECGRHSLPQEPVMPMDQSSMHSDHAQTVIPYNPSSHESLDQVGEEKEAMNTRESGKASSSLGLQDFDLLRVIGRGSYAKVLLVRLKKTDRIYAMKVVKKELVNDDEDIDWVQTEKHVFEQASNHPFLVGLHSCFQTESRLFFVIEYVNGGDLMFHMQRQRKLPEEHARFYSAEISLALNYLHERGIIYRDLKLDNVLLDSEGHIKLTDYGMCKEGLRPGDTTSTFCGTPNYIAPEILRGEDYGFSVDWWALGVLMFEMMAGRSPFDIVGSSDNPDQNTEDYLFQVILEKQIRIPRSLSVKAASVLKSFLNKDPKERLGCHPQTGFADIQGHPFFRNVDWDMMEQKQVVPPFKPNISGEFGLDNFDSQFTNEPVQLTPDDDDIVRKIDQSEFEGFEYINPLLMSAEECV", "assay": "Inhibition of PKCi in human NCI-H929 cells at 10 uM by mass spectroscopic analysis relative to control"}, "[7]": {"molecular_target": "Serine/threonine-protein kinase Nek6 (Homo sapiens) (UniProt Q9HC98)", "sequence (Q9HC98 whole entry)": "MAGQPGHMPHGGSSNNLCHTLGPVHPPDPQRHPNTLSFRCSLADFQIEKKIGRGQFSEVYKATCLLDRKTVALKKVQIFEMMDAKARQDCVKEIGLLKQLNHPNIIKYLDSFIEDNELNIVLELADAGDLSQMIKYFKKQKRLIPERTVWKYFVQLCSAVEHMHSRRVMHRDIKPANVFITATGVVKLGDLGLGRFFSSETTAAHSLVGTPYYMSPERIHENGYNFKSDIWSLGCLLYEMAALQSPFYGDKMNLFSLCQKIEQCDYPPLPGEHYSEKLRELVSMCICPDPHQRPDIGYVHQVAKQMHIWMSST", "assay": "Inhibition of NEK6 in human NCI-H929 cells at 10 uM by mass spectroscopic analysis relative to control", "type": "cell-based"}, "[8]": {"molecular_target": "T1, Kinase suppressor of Ras 2 (Homo sapiens) (UniProt Q6VAB6)", "T1 sequence (whole entry)": "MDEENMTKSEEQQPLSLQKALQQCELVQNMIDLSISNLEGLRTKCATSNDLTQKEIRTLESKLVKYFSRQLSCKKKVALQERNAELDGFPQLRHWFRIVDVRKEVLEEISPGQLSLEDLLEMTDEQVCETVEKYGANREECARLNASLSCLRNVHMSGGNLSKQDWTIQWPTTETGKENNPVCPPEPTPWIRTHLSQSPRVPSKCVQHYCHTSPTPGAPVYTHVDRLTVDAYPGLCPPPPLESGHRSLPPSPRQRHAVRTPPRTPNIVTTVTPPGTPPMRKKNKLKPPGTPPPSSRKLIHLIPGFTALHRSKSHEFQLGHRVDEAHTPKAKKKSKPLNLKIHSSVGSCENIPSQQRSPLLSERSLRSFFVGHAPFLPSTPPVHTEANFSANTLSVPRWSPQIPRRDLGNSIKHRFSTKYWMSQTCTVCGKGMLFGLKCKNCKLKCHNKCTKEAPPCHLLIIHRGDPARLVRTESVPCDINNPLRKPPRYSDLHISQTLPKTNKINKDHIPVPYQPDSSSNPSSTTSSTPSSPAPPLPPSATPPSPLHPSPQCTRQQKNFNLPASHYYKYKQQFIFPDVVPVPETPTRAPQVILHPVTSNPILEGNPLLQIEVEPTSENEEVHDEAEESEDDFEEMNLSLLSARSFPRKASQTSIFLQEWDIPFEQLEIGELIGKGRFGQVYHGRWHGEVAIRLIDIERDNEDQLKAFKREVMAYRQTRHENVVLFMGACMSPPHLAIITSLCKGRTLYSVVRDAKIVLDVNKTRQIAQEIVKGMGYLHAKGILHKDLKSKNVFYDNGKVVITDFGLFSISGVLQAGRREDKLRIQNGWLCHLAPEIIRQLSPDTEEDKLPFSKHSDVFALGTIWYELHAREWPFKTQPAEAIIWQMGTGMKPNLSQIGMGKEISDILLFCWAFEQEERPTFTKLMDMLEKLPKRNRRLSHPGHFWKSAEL", "assay": "Inhibition of KSR2 in human NCI-H929 cells at 10 uM by mass spectroscopic analysis relative to control", "type": "cell-based"}, "[9]": {"molecular_target": "Serine/threonine-protein kinase 24 (Homo sapiens) (UniProt Q9Y6E0)", "sequence (Q9Y6E0 whole entry, looked up)": "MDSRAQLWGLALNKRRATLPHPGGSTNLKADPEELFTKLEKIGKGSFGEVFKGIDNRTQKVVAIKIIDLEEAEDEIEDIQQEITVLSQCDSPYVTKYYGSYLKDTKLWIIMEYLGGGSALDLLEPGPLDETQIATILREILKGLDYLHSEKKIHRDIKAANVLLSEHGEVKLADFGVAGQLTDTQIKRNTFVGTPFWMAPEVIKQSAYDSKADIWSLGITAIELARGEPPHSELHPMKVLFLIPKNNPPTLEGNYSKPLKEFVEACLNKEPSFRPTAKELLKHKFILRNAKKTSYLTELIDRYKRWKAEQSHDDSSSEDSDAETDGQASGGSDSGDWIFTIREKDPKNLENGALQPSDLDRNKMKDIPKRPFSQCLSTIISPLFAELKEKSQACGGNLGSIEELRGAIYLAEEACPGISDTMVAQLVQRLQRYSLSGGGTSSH", "assay": "Inhibition of STK24 (unknown origin) using fluorescein-labelled Ser/Thr-07 peptide as substrate incubated for 1 hr in presence of ATP at Km concentration by Z-LYTE assay"}, "[10]": {"molecular_target": "T2, Mitogen-activated protein kinase 12 (Homo sapiens) (UniProt P53778)", "T2 sequence (whole entry)": "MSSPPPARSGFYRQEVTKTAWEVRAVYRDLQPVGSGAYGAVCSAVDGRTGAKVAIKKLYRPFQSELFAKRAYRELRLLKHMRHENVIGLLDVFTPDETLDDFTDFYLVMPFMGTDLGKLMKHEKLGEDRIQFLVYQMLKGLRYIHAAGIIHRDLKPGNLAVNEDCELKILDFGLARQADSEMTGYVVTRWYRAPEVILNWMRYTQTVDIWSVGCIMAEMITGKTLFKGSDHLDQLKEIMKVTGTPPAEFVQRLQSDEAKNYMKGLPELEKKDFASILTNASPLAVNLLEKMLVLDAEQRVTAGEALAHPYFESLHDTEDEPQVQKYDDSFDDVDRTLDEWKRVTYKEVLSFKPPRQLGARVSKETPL", "assay": "Inhibition of P38gamma in human NCI-H929 cells at 10 uM by mass spectroscopic analysis relative to control", "type": "cell-based"}}, "data": [{"molecule": "Nc1ncc(-c2ccc(NS(=O)(=O)C3CC3)cc2OC2CCCCC2)cc1-c1ccc2c(c1)CCNC2=O", "values": [{"measurement": "inhibition", "setting": "[1]", "value": 0, "unit": "%"}, {"measurement": "inhibition", "setting": "[2]", "value": 0, "unit": "%"}, {"measurement": "inhibition", "setting": "[3]", "value": 0, "unit": "%"}, {"measurement": "inhibition", "setting": "[4]", "value": 0, "unit": "%"}, {"measurement": "inhibition", "setting": "[5]", "value": 0, "unit": "%"}, {"measurement": "inhibition", "setting": "[6]", "value": 0, "unit": "%"}, {"measurement": "inhibition", "setting": "[7]", "value": 0, "unit": "%"}, {"measurement": "inhibition", "setting": "[8]", "value": 0, "unit": "%"}, {"measurement": "IC50", "setting": "[9]", "value": "> 900", "unit": "nM"}, {"measurement": "inhibition", "setting": "[10]", "value": 0, "unit": "%"}]}, {"molecule": "Nc1ncc(-c2cccc3ncsc23)cc1-c1ccc2c(c1)CCNC2=O", "values": [{"measurement": "inhibition", "setting": "[1]", "value": 0, "unit": "%"}, {"measurement": "inhibition", "setting": "[2]", "value": 0, "unit": "%"}, {"measurement": "inhibition", "setting": "[3]", "value": 0, "unit": "%"}, {"measurement": "inhibition", "setting": "[4]", "value": 0, "unit": "%"}, {"measurement": "inhibition", "setting": "[5]", "value": 0, "unit": "%"}, {"measurement": "inhibition", "setting": "[6]", "value": 0, "unit": "%"}, {"measurement": "inhibition", "setting": "[7]", "value": 0, "unit": "%"}, {"measurement": "inhibition", "setting": "[8]", "value": 0, "unit": "%"}, {"measurement": "IC50", "setting": "[9]", "value": "> 900", "unit": "nM"}, {"measurement": "inhibition", "setting": "[10]", "value": 0, "unit": "%"}]}, {"molecule": "COc1cc(NS(=O)(=O)C2CC2)ccc1-c1cnc(N)c(-c2ccc3c(c2)CCNC3=O)c1", "values": [{"measurement": "inhibition", "setting": "[1]", "value": 75, "unit": "%"}, {"measurement": "inhibition", "setting": "[2]", "value": 0, "unit": "%"}, {"measurement": "inhibition", "setting": "[3]", "value": 0, "unit": "%"}, {"measurement": "inhibition", "setting": "[4]", "value": 0, "unit": "%"}, {"measurement": "inhibition", "setting": "[5]", "value": 0, "unit": "%"}, {"measurement": "inhibition", "setting": "[6]", "value": 0, "unit": "%"}, {"measurement": "inhibition", "setting": "[7]", "value": 0, "unit": "%"}, {"measurement": "inhibition", "setting": "[8]", "value": 0, "unit": "%"}, {"measurement": "IC50", "setting": "[9]", "value": 200, "unit": "nM"}, {"measurement": "inhibition", "setting": "[10]", "value": 0, "unit": "%"}]}, {"molecule": "CN(C1CC1)S(=O)(=O)c1ccc(-c2cnc(N)c(-c3ccc4c(c3)CCNC4=O)c2)c(F)c1", "values": [{"measurement": "inhibition", "setting": "[1]", "value": 0, "unit": "%"}, {"measurement": "inhibition", "setting": "[2]", "value": 0, "unit": "%"}, {"measurement": "inhibition", "setting": "[3]", "value": 0, "unit": "%"}, {"measurement": "inhibition", "setting": "[4]", "value": 0, "unit": "%"}, {"measurement": "inhibition", "setting": "[5]", "value": 0, "unit": "%"}, {"measurement": "inhibition", "setting": "[6]", "value": 0, "unit": "%"}, {"measurement": "inhibition", "setting": "[7]", "value": 0, "unit": "%"}, {"measurement": "inhibition", "setting": "[8]", "value": 0, "unit": "%"}, {"measurement": "IC50", "setting": "[9]", "value": 40, "unit": "nM"}, {"measurement": "inhibition", "setting": "[10]", "value": 0, "unit": "%"}]}, {"molecule": "Nc1ncc(-c2cccc([N+](=O)[O-])c2F)cc1-c1ccc2c(c1)CCNC2=O", "values": [{"measurement": "inhibition", "setting": "[1]", "value": 0, "unit": "%"}, {"measurement": "inhibition", "setting": "[2]", "value": "> 100", "unit": "%"}, {"measurement": "inhibition", "setting": "[3]", "value": 0, "unit": "%"}, {"measurement": "inhibition", "setting": "[4]", "value": "> 100", "unit": "%"}, {"measurement": "inhibition", "setting": "[5]", "value": 0, "unit": "%"}, {"measurement": "inhibition", "setting": "[6]", "value": 0, "unit": "%"}, {"measurement": "inhibition", "setting": "[7]", "value": 0, "unit": "%"}, {"measurement": "inhibition", "setting": "[8]", "value": 0, "unit": "%"}, {"measurement": "IC50", "setting": "[9]", "value": "> 900", "unit": "nM"}, {"measurement": "inhibition", "setting": "[10]", "value": 0, "unit": "%"}]}, {"molecule": "Nc1ncc(-c2ccc(NS(=O)(=O)C3CC3)cc2F)cc1-c1ccc2c(c1)CCNC2=O", "values": [{"measurement": "inhibition", "setting": "[1]", "value": 0, "unit": "%"}, {"measurement": "inhibition", "setting": "[2]", "value": 0, "unit": "%"}, {"measurement": "inhibition", "setting": "[3]", "value": 0, "unit": "%"}, {"measurement": "inhibition", "setting": "[4]", "value": 0, "unit": "%"}, {"measurement": "inhibition", "setting": "[5]", "value": 0, "unit": "%"}, {"measurement": "inhibition", "setting": "[6]", "value": 0, "unit": "%"}, {"measurement": "inhibition", "setting": "[7]", "value": 0, "unit": "%"}, {"measurement": "inhibition", "setting": "[8]", "value": 0, "unit": "%"}, {"measurement": "IC50", "setting": "[9]", "value": 40, "unit": "nM"}, {"measurement": "inhibition", "setting": "[10]", "value": 0, "unit": "%"}]}]}
